Biological target: T1, Serine-rich adhesin for platelets (SraP), L-Lectin module (Staphylococcus aureus, UniProt Q8NUJ3)
T1 construct: SraP L-Lectin domain (L-Lectin of MW2)
Test: SPR (Biacore T200, protein amine-coupled on CM5 chip, kinetic fit)
Assay type: binding

T1 sequence (Q8NUJ3 245-480): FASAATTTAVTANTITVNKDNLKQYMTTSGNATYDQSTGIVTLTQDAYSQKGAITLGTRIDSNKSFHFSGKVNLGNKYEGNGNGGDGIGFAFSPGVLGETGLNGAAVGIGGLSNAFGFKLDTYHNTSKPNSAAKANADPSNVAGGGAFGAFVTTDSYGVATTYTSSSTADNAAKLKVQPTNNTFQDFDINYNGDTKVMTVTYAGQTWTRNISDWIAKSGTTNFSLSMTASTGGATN

O=C(O[C@@H]1Cc2c(O)cc(O)cc2O[C@@H]1c1cc(O)c(O)c(O)c1)c1cc(O)c(O)c(O)c1 [EGCG]
Kd: 4 µM

Reference: paper PMC12844705, “Multitarget Mechanisms of (‒)‒Epigallocatechin-3-Gallate Against MRSA: From SraP L-Lectin Targeting to Synergistic Antibiotic Effects” (Pathogens, 2026)
